From paper PMC6100633, “Design, Synthesis, and Evaluation of a New Series of Thiazole-Based Anticancer Agents as Potent Akt Inhibitors” (Molecules : A Journal of Synthetic Chemistry and Natural …, 2018)
Converted amounts (≈) assume the structure as drawn.

How the values were obtained:
[1] = system: A549 human lung adenocarcinoma cell line; assay: MTT assay, A549 cells; assay type: cell-based; conditions: for IC50: Homo sapiens, A549, 24 h
Description: (§1) C6 Rat glioma and NIH/3T3 mouse embryonic fibroblast cells were incubated in Dulbecco’s Modified Eagle’s Medium (DMEM) (Sigma, Deisenhofen, Germany) supplemented with 10% fetal calf serum (Gibco, Paisley, UK). A549 Human lung adenocarcinoma cells were incubated in 90% RPMI supplemented with 10% fetal bovine serum (Gibco, Paisley, UK). All media were supplemented with 100 IU/mL penicillin-streptomycin (Gibco, Paisley, UK) and the cells were incubated at 37 °C in a humidified atmosphere of 95% air and 5% CO2. Exponentially growing cells were plated at 2 × 10^4 cells/mL into 96-well microtiter tissue culture plates (Nunc, Roskilde, Denmark) and incubated for 24 h before the addition of the drugs (the optimum cell number for cytotoxicity assays was determined in preliminary experiments). The stock solutions of the compounds were prepared in dimethyl sulfoxide (DMSO; Sigma Aldrich, Poole, UK) and further dilutions were made with fresh culture medium (the concentration of DMSO in the final culture medium was <0.1% which had no effect on the cell viability).
(§2) The level of cellular 3-(4,5-dimethylthiazol-2-yl)-2,5-diphenyltetrazolium bromide (MTT) (Sigma-Aldrich, St. Louis, MO, USA) reduction was quantified as previously described in the literature with small modifications. […] At the end of this period, MTT was added to a final concentration of 0.5 mg/mL and the cells were incubated for 4 h at 37 °C. After the medium was removed, the formazan crystals formed by MTT metabolism were solubilized by addition of 200 µL DMSO to each well and absorbance was read at 540 nm with a microtiter plate spectrophotometer (BioTek Plate Reader, Winooski, VT, USA). Every concentration was repeated in three wells.

C6 rat glioma cell line = assay: MTT assay, C6 cells; assay type: cell-based; conditions: for IC50: Rattus norvegicus, C6, 24 h
Description: as §1, §2

A549 cells = assay: Annexin V FITC/PI flow cytometric analysis of apoptosis, A549 cells; assay type: cell-based, human; conditions: 24 h, compounds at IC50 values
Description: (§3) Annexin V staining protocol was applied according to the manufacturer’s instructions (BD Pharmingen, San Jose, CA, USA). The cells were then briefly washed with cold phosphate buffer saline (PBS) and suspended in a binding buffer at a concentration of 1 × 10^6 cells/mL. Then, 100 µL of this solution containing 1 × 10^5 cells was transferred to a 5 mL test tube. After 5 µL of Annexin V and PI was added, the cells were incubated for 15 min at room temperature in the dark. Then 400 µL of 1× binding buffer was added to each tube and the cells were processed for data acquisition, and analyzed on a BD FACSAria flow cytometer using FACSDiva version 6.1.1 software (BD Biosciences, San Jose, CA, USA).

C6 cells = assay: Annexin V FITC/PI flow cytometric analysis of apoptosis, C6 cells; assay type: cell-based, rat; conditions: for early and late apoptotic cell population: C6 cell line, sum of early and late apoptotic cells; for Early Apoptotic Cells% / Late Apoptotic Cells% / Viable Cells%: C6 cells, 24 h, compounds at IC50 values
Description: as §3

Akt [2] = assay: In cell ELISA colorimetric Akt activity, A549 cells; assay type: cell-based, human; conditions: compounds at IC50 concentrations for 24 h
Description: (§4) Briefly, the media was removed and 100 µL of 4% formaldehyde was added to each well. The plate was incubated in a fume hood at room temperature for 15 min. Formaldehyde was removed and the plate was washed twice with 100 µL/well of 1× TBS. Then, 1× TBS was removed, 100 µL/well of 1× permeabilization buffer was added and incubated for 15 min at room temperature. The permeabilization buffer was removed and the plate was washed once with 100 µL/well of 1× TBS. Then, 1× TBS was removed, 100 µL/well quenching solution was added and incubated at room temperature for 20 min. Quenching solution was removed and the plate was washed once with 100 µL/well of 1× TBS. Then, 1× TBS was removed and 100 µL/well of blocking buffer was added and incubated at room temperature for 30 min. After the blocking buffer was removed, 50 µL/well of primary antibody was added. A plate sealer was applied and incubated overnight at 4 °C. The primary antibody solution was removed and the plate was washed three times with 100 µL/well of 1× wash Buffer. After the wash buffer was removed, 100 µL/well of diluted HRP conjugate was added and incubated for 30 min at room temperature. The wash buffer was removed and 100 µL/well of TMB substrate was added. The plate was then incubated at room temperature, protected from light. 100 µL/well of TMB stop solution was added and the absorbance was measured at 450 nm within 30 min of stopping the reaction. The experiment was performed in triplicate wells. The values of blank wells were subtracted from each well of treated and control cells. Percent Akt activity was defined as the relative absorbance of treated versus untreated control cells.

Akt [3] = assay: In cell ELISA colorimetric Akt activity, C6 cells; assay type: cell-based, rat; conditions: compounds at IC50 concentrations for 24 h
Description: as §4

[4] = system: NIH/3T3 mouse embryonic fibroblast cell line; assay: MTT assay, NIH/3T3 cells (healthy); assay type: cell-based; conditions: NIH3T3, 24 h
Description: as §1, with “viability). The level of cellular 3-(4,5-dimethylthiazol-2-yl)-2,5-diphenyltetrazolium bromide (MTT) (Sigma-Aldrich, St. Louis, MO, USA) reduction was quantified as previously described in the literature with small modifications. […] At the end of this period, MTT was added to a final concentration of 0.5 mg/mL and the cells were incubated for 4 h at 37 °C. After the medium was removed, the formazan crystals formed by MTT metabolism were solubilized by addition of 200 µL DMSO to each well and absorbance was read at 540 nm with a microtiter plate spectrophotometer (BioTek Plate Reader, Winooski, VT, USA). Every concentration was repeated in three wells.” for “viability).”

With `N.N.[Cl][Pt][Cl]` [Cisplatin, cisplatin, reference compound] the “IC50 A549 Cell Line” value ([1]; 24 h) was 17.33 ± 2.08 µg/mL, the “IC50 C6 Cell Line” value (C6 rat glioma cell line; 24 h) was 12.67 ± 3.06 µg/mL and the “Early Apoptotic Cells%” value (A549 cells) was 2.6%. The “Late Apoptotic Cells%” value (A549 cells) was 63.5%, the “early and late apoptotic cell population” value (C6 cells) was 28.8% and the “Early Apoptotic Cells%” value (C6 cells) was 3.3%. The “Late Apoptotic Cells%” value (C6 cells) was 25.5%, the “Akt Inhibition % A549 Cell Line” value (Akt [2]) was 31.01 ± 3.18% and the “Akt Inhibition % C6 Cell Line” value (Akt [3]) was 77.25 ± 5.75%.

`N#Cc1ccc(Oc2ccc(C=NNc3nc(-c4ccccc4)cs3)cc2)cc1` [Compound 1, 2-[2-((4-(4-Cyanophenoxy)phenyl)methylene)hydrazinyl]-4-phenylthiazole] gave an IC50 [1] of 410 ± 14.1 µg/mL (≈ 1030 µM), an IC50 (C6 rat glioma cell line) greater than 500 µg/mL and an IC50 [4] of 197 ± 20.8 µg/mL (≈ 496 µM).

Compound `N#Cc1ccc(Oc2ccc(C=NNc3nc(-c4ccc([N+](=O)[O-])cc4)cs3)cc2)cc1` [Compound 2, 2-[2-((4-(4-Cyanophenoxy)phenyl)methylene)hydrazinyl]-4-(4-nitrophenyl)thiazole] has an IC50 [1] of 100 ± 20 µg/mL (≈ 227 µM), an IC50 (C6 rat glioma cell line) greater than 500 µg/mL and an IC50 [4] of 71.7 ± 24.7 µg/mL (≈ 162 µM). The melting point was 250 to 251 °C.

Work on `N#Cc1ccc(Oc2ccc(C=NNc3nc(-c4ccc(F)cc4)cs3)cc2)cc1` [Compound 3, 2-[2-((4-(4-Cyanophenoxy)phenyl)methylene)hydrazinyl]-4-(4-fluorophenyl)thiazole] yielded an IC50 [1] of 193 ± 15.3 µg/mL (≈ 466 µM), an IC50 (C6 rat glioma cell line) greater than 500 µg/mL and an IC50 [4] of 170 ± 36.1 µg/mL (≈ 410 µM). The melting point was 204 to 205 °C.

For `N#Cc1ccc(Oc2ccc(C=NNc3nc(-c4ccc(Cl)cc4)cs3)cc2)cc1` [Compound 4, 2-[2-((4-(4-Cyanophenoxy)phenyl)methylene)hydrazinyl]-4-(4-chlorophenyl)thiazole], the IC50 [1] was 207 ± 23.1 µg/mL (≈ 480 µM), the IC50 (C6 rat glioma cell line) was greater than 500 µg/mL and the IC50 [4] was 180 ± 10 µg/mL (≈ 418 µM). For the same compound, the melting point was 227 to 228 °C.

With `N#Cc1ccc(Oc2ccc(C=NNc3nc(-c4ccc(Br)cc4)cs3)cc2)cc1` [Compound 5, 2-[2-((4-(4-Cyanophenoxy)phenyl)methylene)hydrazinyl]-4-(4-bromophenyl)thiazole] the IC50 [1] was 198 ± 10.4 µg/mL (≈ 417 µM), the IC50 (C6 rat glioma cell line) was greater than 500 µg/mL and the IC50 [4] was 163 ± 5.77 µg/mL (≈ 344 µM). It also gave a melting point of 217 to 218 °C.

`N#Cc1ccc(Oc2ccc(C=NNc3nc(-c4ccc(C#N)cc4)cs3)cc2)cc1` [Compound 6, 2-[2-((4-(4-Cyanophenoxy)phenyl)methylene)hydrazinyl]-4-(4-cyanophenyl)thiazole] showed an IC50 [1] of 12 ± 1.73 µg/mL (≈ 28.5 µM), an IC50 (C6 rat glioma cell line) of 3.83 ± 0.76 µg/mL (≈ 9.09 µM) and an IC50 [4] greater than 500 µg/mL. The “Early Apoptotic Cells%” value (A549 cells) was 2.3%, the “Late Apoptotic Cells%” value (A549 cells) was 36.5% and the “Viable Cells%” value (A549 cells) was 14.4%. For the same compound, the “early and late apoptotic cell population” value (C6 cells) was 32.8%, the “Early Apoptotic Cells%” value (C6 cells) was 4.6% and the “Late Apoptotic Cells%” value (C6 cells) was 28.2%. The “Viable Cells%” value (C6 cells) was 42.2%, the “Akt Inhibition % A549 Cell Line” value (Akt [2]) was 45.77 ± 10.58% and the “Akt Inhibition % C6 Cell Line” value (Akt [3]) was 71.66 ± 4.09%. It also gave a melting point of 232 to 233 °C.

`Cc1ccc(-c2csc(NN=Cc3ccc(Oc4ccc(C#N)cc4)cc3)n2)cc1` [Compound 7, 2-[2-((4-(4-Cyanophenoxy)phenyl)methylene)hydrazinyl]-4-(4-methylphenyl)thiazole] showed an IC50 [1] of 270 ± 95.4 µg/mL (≈ 658 µM), an IC50 (C6 rat glioma cell line) of 16 ± 5.66 µg/mL (≈ 39 µM) and an IC50 [4] of 185 ± 5 µg/mL (≈ 451 µM). For the same compound, the “Early Apoptotic Cells%” value (C6 cells) was 3.2%, the “Late Apoptotic Cells%” value (C6 cells) was 14.3% and the “Viable Cells%” value (C6 cells) was 69.2%. For the same compound, the “Akt Inhibition % C6 Cell Line” value (Akt [3]) was 70.42 ± 10.37% and the melting point was 228 to 229 °C.

Work on `N#Cc1ccc(Oc2ccc(C=NNc3nc(-c4ccc(O)cc4)cs3)cc2)cc1` [Compound 8, 2-[2-((4-(4-Cyanophenoxy)phenyl)methylene)hydrazinyl]-4-(4-hydroxyphenyl)thiazole] yielded an IC50 [1] of 107 ± 5.77 µg/mL (≈ 259 µM), an IC50 (C6 rat glioma cell line) of 5.83 ± 0.76 µg/mL (≈ 14.1 µM) and an IC50 [4] of 227 ± 11.6 µg/mL (≈ 550 µM). The “Early Apoptotic Cells%” value (A549 cells) was 2.1%, the “Late Apoptotic Cells%” value (A549 cells) was 38.7% and the “Viable Cells%” value (A549 cells) was 18.5%. For the same compound, the “Early Apoptotic Cells%” value (C6 cells) was 1.9%, the “Late Apoptotic Cells%” value (C6 cells) was 23.8% and the “Viable Cells%” value (C6 cells) was 49.7%. The “Akt Inhibition % A549 Cell Line” value (Akt [2]) was 57.37 ± 17.30%, the “Akt Inhibition % C6 Cell Line” value (Akt [3]) was 24.99 ± 0.52% and the melting point was 249 to 250 °C.

`COc1ccc(-c2csc(NN=Cc3ccc(Oc4ccc(C#N)cc4)cc3)n2)cc1` [Compound 9, 2-[2-((4-(4-Cyanophenoxy)phenyl)methylene)hydrazinyl]-4-(4-methoxyphenyl)thiazole] gave an IC50 [1] of 233 ± 57.7 µg/mL (≈ 547 µM), an IC50 (C6 rat glioma cell line) greater than 500 µg/mL and an IC50 [4] of 433 ± 28.9 µg/mL (≈ 1020 µM). It also gave a melting point of 210 to 211 °C.

With `N#Cc1ccc(Oc2ccc(C=NNc3nc(-c4ccc5ccccc5c4)cs3)cc2)cc1` [Compound 10, 2-[2-((4-(4-Cyanophenoxy)phenyl)methylene)hydrazinyl]-4-(naphthalen-2-yl)thiazole] the IC50 [1] was greater than 500 µg/mL, the IC50 (C6 rat glioma cell line) was greater than 500 µg/mL and the IC50 [4] was greater than 500 µg/mL. For the same compound, the melting point was 204 to 205 °C.

Work on `N#Cc1ccc(Oc2ccc(C=NNC(N)=S)cc2)cc1` [Compound A, 4-(4-Cyanophenoxy)benzaldehyde thiosemicarbazone] yielded an IC50 [1] of 92.5 ± 3.54 µg/mL (≈ 312 µM), an IC50 (C6 rat glioma cell line) of 26.3 ± 1.53 µg/mL (≈ 88.8 µM) and an IC50 [4] of 225 ± 18 µg/mL (≈ 759 µM). For the same compound, the “Early Apoptotic Cells%” value (A549 cells) was 7.6%, the “Late Apoptotic Cells%” value (A549 cells) was 45.9% and the “Viable Cells%” value (A549 cells) was 24.2%. For the same compound, the “Early Apoptotic Cells%” value (C6 cells) was 3.2%, the “Late Apoptotic Cells%” value (C6 cells) was 13.1% and the “Viable Cells%” value (C6 cells) was 70.2%. For the same compound, the “Akt Inhibition % A549 Cell Line” value (Akt [2]) was 68.08 ± 2.48%, the “Akt Inhibition % C6 Cell Line” value (Akt [3]) was 25.23 ± 8.62% and the melting point was 235 to 236 °C.
